Legend:
ARPE-19mel cells = experiment: Melanosomal drug uptake assay in re-pigmented ARPE-19mel cells (medium concentration vs non-pigmented ARPE-19, LC-MS/MS); format: in vitro ADME, human; details: 4 µM drug, 20 hours; for Melanosomal drug uptake (%), average: serum-free medium; for Melanosomal drug uptake (fraction of administered compound in the melanosomes): ARPE-19mel cells, pigmentation stage not specified
Experimental: Uptake of six different drugs (Table 1) was studied in non-pigmented ARPE-19 cells and pigmented ARPE-19mel cells. The melanosome administration was conducted as described above using three melanosome doses (corresponding to 7 µg, 20 µg and 68 µg of melanin). These melanosome doses correspond to 10, 30 and 100% levels of pigmentation. The highest external melanosome dose (68 µg) results in similar cellular pigmentation with the native pRPE (i.e. normalized as 100%).
Drug uptake study was initiated 4–5 days after melanosome feeding. The experiments were conducted in 2–6 replicate wells, separately for each compound. The cells were exposed to 4 µM of each drug for 20 hours in serum-free culture medium. Then, samples from the medium samples were collected and diluted 2:5 into acetonitrile (ACN) with 0.2% formic acid. The samples were centrifuged at 15 000 g for 5 min, and the supernatant was collected and diluted 1:10 into mixture of ACN-water (60:40). Finally, internal standards were added at final concentration of 100 nM. Different internal standards were used for each compound (Table 1). The melanin amounts in the wells were measured after the uptake experiment (see above).
Drugs were quantitated with liquid chromatography mass spectrometry (LC-MS) analyses that were carried out with Acquity i-class UPLC (Waters, Massachusetts, USA) coupled with Xevo TQ-S triple quadrupole mass spectrometry (Waters). […] Chromatographic separation for all six compounds was carried out using Waters HSS-T3 column (2.1 × 100 mm, 1.8 µm) and gradient run. The mobile phases were prepared as binary phases. Phase A was purified water with 0.1% of formic acid and phase B contained 100% lc-ms grade acetonitrile (Chromasolv^TM). […] Total run time was 9 minutes including column flush and stabilization to the initial state. […] Flow through needle system was used.
Electrospray ionization on positive mode was used in the analyses. […] Nitrogen was used as a desolvation gas (Aga, Helsinki, Finland) and argon as a collision gas (Aga). Capillary and cone voltages, collision energy and dwell time were tuned individually for each compound (Table 2). […] Minimum of eight calibration curve levels were used for quantification while quality control (QC) samples used to monitor precision and bias of the assay. Data were processed with MassLynx V4.1 software (Waters).
The melanosomal drug uptake was calculated using the Eq. 1 below:1 Melanosomaldruguptake(%)=(1−CmediumARPE−19mel/CmediumARPE−19)×100%

[1] = set-up: method as in PMID 29859954, PMID 28479360; details: descriptors originally obtained with ACDLabs Software, cited from earlier work; for logD7.4 (predicted): pH 7.4
[2] = 10 % stage of pigmentation (7 µg melanin/well)
[3] = 30 % stage of pigmentation (20 µg melanin/well)
[4] = 100 % stage of pigmentation (68 µg melanin/well)

CCN(CC)CCCC(C)Nc1ccnc2cc(Cl)ccc12 (centres unmarked) [chloroquine]
Melanosomal drug uptake (%), average (ARPE-19mel cells; [2]): 80.3%
Melanosomal drug uptake (%), average (ARPE-19mel cells; [3]): 93.3%
Melanosomal drug uptake (%), average (ARPE-19mel cells; [4]): 96.7%
Melanosomal drug uptake (fraction of administered compound in the melanosomes) (ARPE-19mel cells): > 90%

O=C(O)Cc1ccccc1Nc1c(Cl)cccc1Cl [diclofenac]
Melanosomal drug uptake (%), average (ARPE-19mel cells; [2]): 0.8%
Melanosomal drug uptake (%), average (ARPE-19mel cells; [3]): 1.2%
Melanosomal drug uptake (%), average (ARPE-19mel cells; [4]): 3.7%
Melanosomal drug uptake (fraction of administered compound in the melanosomes) (ARPE-19mel cells): < 5%
logD7.4 (predicted) [1]: 1.4

CN(Cc1cnc2nc(N)nc(N)c2n1)c1ccc(C(=O)N[C@@H](CCC(=O)O)C(=O)O)cc1 [methotrexate]
Melanosomal drug uptake (%), average (ARPE-19mel cells; [2]): 5.1%
Melanosomal drug uptake (%), average (ARPE-19mel cells; [3]): 3.9%
Melanosomal drug uptake (%), average (ARPE-19mel cells; [4]): 3.5%
Melanosomal drug uptake (fraction of administered compound in the melanosomes) (ARPE-19mel cells): < 5%
pKa, most acidic [1]: 3.5
logD7.4 (predicted) [1]: −5.1

CC[C@@H]1C(=O)OC[C@@H]1Cc1cncn1C [pilocarpine]
Melanosomal drug uptake (%), average (ARPE-19mel cells; [2]): 11.5%
Melanosomal drug uptake (%), average (ARPE-19mel cells; [3]): 23.5%
Melanosomal drug uptake (%), average (ARPE-19mel cells; [4]): 30.2%
pKa, most basic [1]: 7.02
logD7.4 (predicted) [1]: −0.4

CC(C)NCC(O)COc1cccc2ccccc12 (centres unmarked) [propranolol]
Melanosomal drug uptake (%), average (ARPE-19mel cells; [2]): 34.1%
Melanosomal drug uptake (%), average (ARPE-19mel cells; [3]): 76.1%
Melanosomal drug uptake (%), average (ARPE-19mel cells; [4]): 92.2%
Melanosomal drug uptake (fraction of administered compound in the melanosomes) (ARPE-19mel cells): > 90%

CC(C)(C)NC[C@H](O)COc1nsnc1N1CCOCC1 [timolol]
Melanosomal drug uptake (%), average (ARPE-19mel cells; [2]): 17.6%
Melanosomal drug uptake (%), average (ARPE-19mel cells; [3]): 31.2%
Melanosomal drug uptake (%), average (ARPE-19mel cells; [4]): 48.2%
pKa, most basic [1]: 9.4
logD7.4 (predicted) [1]: −0.6

Source: publication PMC6760193, “Characterization of artificially re-pigmented ARPE-19 retinal pigment epithelial cell model” (Scientific Reports, 2019)
